The data set can be described thus: stability of crystalline Form M1 in commonly used solvents and at high temperature. It counts as physicochemical. The note with it: solvents used for production and especially for formulation of the pharmaceutical product.

For the substance Lapatinib monotosylate [Form M1], the “stability in commonly used solvents” value was “high stability”.

The values are drawn from patent US20100087459A1, “FORMS OF LAPATINIB COMPOUNDS AND PROCESSES FOR THE PREPARATION THEREOF” (priority 2008, published 2010).
